From patent US9156845B2, “4-(substituted amino)-7H-pyrrolo[2,3-d] pyrimidines as LRRK2 inhibitors” (Pfizer Inc., priority 2012, dated 2015)

Legend:
[1] = molecular target: GST-tagged truncated LRRK2 (Homo sapiens (Human), UniProt Q5S007); test: LRRK2 Lantha Screen kinase assay; type: biochemical; conditions: geometric mean of 2-5 determinations unless otherwise indicated (a: >=6 determinations; b: single determination); read-out: LRRK2 WT IC50
Experimental: (§1) LRRK2 kinase activity was measured using Lantha Screen technology from Invitrogen. GST-tagged truncated LRRK2 from Invitrogen (Cat # PV4874) was incubated with a fluorescein-labeled peptide substrate based upon ezrin/radixin/moesin (ERM), also known as LRRKtide (Invitrogen cat #PR8976A), in the presence of a dose response of compound. Upon completion, the assay was stopped and detected with a terbium labeled anti-phospho-ERM antibody (Invitrogen, cat #PR8975A). […] Aliquots (3.5 μL) of the 100% DMSO dose response were mixed with 46.5 μL water then 1 μL of this mixture was added to the 3 μL substrate mix in the 384-well plate. The kinase reaction was started with 3 μL of a working solution of LRRK2 enzyme at a concentration of 4 μg/mL. […] The reaction was allowed to progress at room temperature for two hours and then stopped with the addition of 7 μL of detection buffer (20 mM Tris pH 7.6, 0.01% NP-40, 0.02% NaN3, 6 mM EDTA with 2 nM terbium labeled anti-phospho-ERM).

mutant G2019S LRRK2 = mutant G2019S LRRK2 (Homo sapiens (Human), UniProt Q5S007, G2019S); test: LRRK2 Lantha Screen kinase assay, mutant enzyme; type: biochemical; conditions: geometric mean of 2-5 determinations unless otherwise indicated (a: >=6 determinations; b: single determination)
Chain of mutant G2019S LRRK2 (Q5S007 970-2527 G2019S): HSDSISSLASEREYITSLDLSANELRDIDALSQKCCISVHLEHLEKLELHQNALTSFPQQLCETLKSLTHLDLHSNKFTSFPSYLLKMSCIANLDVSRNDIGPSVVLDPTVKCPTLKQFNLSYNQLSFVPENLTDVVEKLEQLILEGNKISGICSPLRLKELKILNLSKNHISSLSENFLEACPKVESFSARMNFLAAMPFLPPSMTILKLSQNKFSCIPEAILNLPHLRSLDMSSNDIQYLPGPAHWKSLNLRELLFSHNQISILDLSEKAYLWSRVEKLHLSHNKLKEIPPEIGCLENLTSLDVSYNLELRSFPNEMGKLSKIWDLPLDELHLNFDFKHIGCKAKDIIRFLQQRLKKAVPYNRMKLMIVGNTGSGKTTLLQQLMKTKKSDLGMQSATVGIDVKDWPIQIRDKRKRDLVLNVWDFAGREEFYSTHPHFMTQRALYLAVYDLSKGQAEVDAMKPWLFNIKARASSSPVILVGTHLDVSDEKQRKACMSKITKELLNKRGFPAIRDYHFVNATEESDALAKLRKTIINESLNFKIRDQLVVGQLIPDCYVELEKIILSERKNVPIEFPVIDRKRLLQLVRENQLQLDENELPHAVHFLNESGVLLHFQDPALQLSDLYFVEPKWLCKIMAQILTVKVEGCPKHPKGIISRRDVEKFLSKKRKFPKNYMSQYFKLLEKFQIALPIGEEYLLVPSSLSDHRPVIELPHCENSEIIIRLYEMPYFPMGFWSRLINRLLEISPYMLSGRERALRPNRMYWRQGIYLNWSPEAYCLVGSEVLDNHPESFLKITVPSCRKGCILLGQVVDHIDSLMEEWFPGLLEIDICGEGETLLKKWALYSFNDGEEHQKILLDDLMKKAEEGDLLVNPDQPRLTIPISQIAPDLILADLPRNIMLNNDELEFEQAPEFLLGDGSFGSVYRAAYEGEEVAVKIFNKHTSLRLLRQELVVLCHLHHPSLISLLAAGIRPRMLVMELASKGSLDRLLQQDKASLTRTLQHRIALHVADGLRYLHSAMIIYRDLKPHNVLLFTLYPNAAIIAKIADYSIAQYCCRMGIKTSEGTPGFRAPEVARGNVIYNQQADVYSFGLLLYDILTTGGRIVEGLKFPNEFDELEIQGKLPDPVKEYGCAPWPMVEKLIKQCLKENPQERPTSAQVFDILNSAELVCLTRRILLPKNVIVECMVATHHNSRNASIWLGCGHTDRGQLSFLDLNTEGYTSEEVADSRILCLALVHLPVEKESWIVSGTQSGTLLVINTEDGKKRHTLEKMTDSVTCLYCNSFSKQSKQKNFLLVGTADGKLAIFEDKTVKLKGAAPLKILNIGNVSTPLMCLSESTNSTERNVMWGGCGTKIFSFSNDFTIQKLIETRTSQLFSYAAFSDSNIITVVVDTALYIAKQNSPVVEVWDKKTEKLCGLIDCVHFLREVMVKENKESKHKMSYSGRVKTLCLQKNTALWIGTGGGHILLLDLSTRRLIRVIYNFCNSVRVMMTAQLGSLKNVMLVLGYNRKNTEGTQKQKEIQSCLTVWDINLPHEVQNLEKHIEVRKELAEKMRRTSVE
Experimental: as §1
All final concentrations of substrate ATP and enzyme were the same.

Chain of GST-tagged truncated LRRK2 (Q5S007 970-2527): as the sequence (Q5S007 970-2527 G2019S) above, with S1050G counted along it

Structure (SMILES) | IC50 [1] | IC50 (mutant G2019S LRRK2)
N#Cc1cccc(-c2c[nH]c3ncnc(N4CCC(F)(F)C4)c23)c1 [Example 136, 3-[4-(3,3-difluoropyrrolidin-1-yl)-7H-pyrrolo[2,3-d]pyrimidin-5-yl]benzonitrile] | 74 nM | 194 nM
N#Cc1cccc(-c2c[nH]c3ncnc(N4CCCC(C(N)=O)C4)c23)c1 (stereo not shown) [Example 139, 1-[5-(3-cyanophenyl)-7H-pyrrolo[2,3-d]pyrimidin-4-yl]piperidine-3-carboxamide] | 49 nM | 136 nM
CCC1CN(c2ncnc3[nH]cc(-c4cccc(C#N)c4)c23)CCO1 (stereo not shown) [Example 140, 3-[4-(2-ethylmorpholin-4-yl)-7H-pyrrolo[2,3-d]pyrimidin-5-yl]benzonitrile] | 61 nM | 95 nM
N#Cc1cccc(-c2c[nH]c3ncnc(N4CCOC(c5ccncn5)C4)c23)c1 (stereo not shown) [Example 141, 3-{4-[2-(pyrimidin-4-yl)morpholin-4-yl]-7H-pyrrolo[2,3-d]pyrimidin-5-yl}benzonitrile] | 79 nM | 193 nM
CN(C)CC1CN(c2ncnc3[nH]cc(-c4cccc(C#N)c4)c23)CCO1 (stereo not shown) [Example 143, 3-(4-{2-[(dimethylamino)methyl]morpholin-4-yl}-7H-pyrrolo[2,3-d]pyrimidin-5-yl)benzonitrile] | 45 nM | 110 nM
N#Cc1cccc(-c2c[nH]c3ncnc(Nc4cn[nH]c4)c23)c1 [Example 144, 3-[4-(1H-pyrazol-4-ylamino)-7H-pyrrolo[2,3-d]pyrimidin-5-yl]benzonitrile] | 69 nM | 36 nM
Cc1nc(CC2CN(c3ncnc4[nH]cc(-c5cccc(C#N)c5)c34)CCO2)no1 (stereo not shown) [Example 145, 3-(4-{2-[(5-methyl-1,2,4-oxadiazol-3-yl)methyl]morpholin-4-yl}-7H-pyrrolo[2,3-d]pyrimidin-5-yl)benzonitrile] | 55 nM | 155 nM
Cc1nnc(C2CCCN(c3ncnc4[nH]cc(-c5cccc(C#N)c5)c34)C2)o1 (stereo not shown) [Example 146, 3-{4-[3-(5-methyl-1,3,4-oxadiazol-2-yl)piperidin-1-yl]-7H-pyrrolo[2,3-d]pyrimidin-5-yl}benzonitrile] | 96 nM | 217 nM
COc1cc(C#N)cc(-c2c[nH]c3ncnc(N(C)C)c23)c1 [Example 147, 3-[4-(dimethylamino)-7H-pyrrolo[2,3-d]pyrimidin-5-yl]-5-methoxybenzonitrile] | 37 nM | 93 nM
CCn1cc(-c2c[nH]c3ncnc(N4CCOCC4)c23)cn1 [Example 148, 5-(1-ethyl-1H-pyrazol-4-yl)-4-(morpholin-4-yl)-7H-pyrrolo[2,3-d]pyrimidine] | 77 nM | 92 nM
Cc1nn(C)cc1-c1c[nH]c2ncnc(N3CCOCC3)c12 [Example 152, 5-(1,3-dimethyl-1H-pyrazol-4-yl)-4-(morpholin-4-yl)-7H-pyrrolo[2,3-d]pyrimidine] | 60 nM | 91 nM
C[C@H]1COCCN1c1ncnc2[nH]cc(-c3cccc(C#N)c3)c12 [Example 153, 3-{4-[(3S)-3-methylmorpholin-4-yl]-7H-pyrrolo[2,3-d]pyrimidin-5-yl}benzonitrile] | 44 nM | 165 nM
OC1CCCN(c2ncnc3[nH]cc(-c4cccc(F)c4)c23)C1 (stereo not shown) [Example 156, 1-[5-(3-fluorophenyl)-7H-pyrrolo[2,3-d]pyrimidin-4-yl]piperidin-3-ol] | 57 nM | 86 nM
COc1ccc(F)cc1-c1c[nH]c2ncnc(N3CCOC(c4noc(C)n4)C3)c12 (stereo not shown) [Example 157, 5-(5-fluoro-2-methoxyphenyl)-4-[2-(5-methyl-1,2,4-oxadiazol-3-yl)morpholin-4-yl]-7H-pyrrolo[2,3-d]pyrimidine] | 44 nM | 46 nM
COc1ccccc1-c1c[nH]c2ncnc(N3CCC(F)CC3)c12 [Example 159, 4-(4-fluoropiperidin-1-yl)-5-(2-methoxyphenyl)-7H-pyrrolo[2,3-d]pyrimidine] | 67 nM | 74 nM
COc1cc(F)cc(-c2c[nH]c3ncnc(N4CCC(F)CC4)c23)c1 [Example 160, 5-(3-fluoro-5-methoxyphenyl)-4-(4-fluoropiperidin-1-yl)-7H-pyrrolo[2,3-d]pyrimidine] | 84 nM | 96 nM
COc1ccccc1-c1c[nH]c2ncnc(N3CCCC(O)C3)c12 (stereo not shown) [Example 165, 1-[5-(2-methoxyphenyl)-7H-pyrrolo[2,3-d]pyrimidin-4-yl]piperidin-3-ol] | 58 nM | 62 nM
Cc1noc(C2CN(c3ncnc4[nH]cc(-c5cccc(C#N)c5F)c34)CCO2)n1 (stereo not shown) [Example 166, 2-fluoro-3-{4-[2-(3-methyl-1,2,4-oxadiazol-5-yl)morpholin-4-yl]-7H-pyrrolo[2,3-d]pyrimidin-5-yl}benzonitrile] | 38 nM | 272 nM
COCC1CN(c2ncnc3[nH]cc(-c4cccc(C#N)c4F)c23)CCO1 (stereo not shown) [Example 167, 2-fluoro-3-{4-[2-(methoxymethyl)morpholin-4-yl]-7H-pyrrolo[2,3-d]pyrimidin-5-yl}benzonitrile] | 61 nM | 372 nM
COc1ccc(F)cc1-c1c[nH]c2ncnc(N3CCC3)c12 [Example 168, 4-(azetidin-1-yl)-5-(5-fluoro-2-methoxyphenyl)-7H-pyrrolo[2,3-d]pyrimidine] | 85 nM | 75 nM
Cc1cncc(-c2c[nH]c3ncnc(N4CCO[C@@H](C)C4)c23)c1 [Example 169, 4-[(2S)-2-methylmorpholin-4-yl]-5-(5-methylpyridin-3-yl)-7H-pyrrolo[2,3-d]pyrimidin] | 99 nM | 280 nM
COc1ccccc1-c1c[nH]c2ncnc(N(C)C)c12 [Example 173, 5-(2-methoxyphenyl)-N,N-dimethyl-7H-pyrrolo[2,3-d]pyrimidin-4-amine] | 43 nM | 29 nM
COc1ccccc1-c1c[nH]c2ncnc(N3CC[C@H](F)C3)c12 [Example 175, 4-[(3S)-3-fluoropyrrolidin-1-yl]-5-(2-methoxyphenyl)-7H-pyrrolo[2,3-d]pyrimidine] | 41 nM | 54 nM
COc1ccccc1-c1c[nH]c2ncnc(N3CCCC3)c12 [Example 176, 5-(2-methoxyphenyl)-4-(pyrrolidin-1-yl)-7H-pyrrolo[2,3-d]pyrimidine] | 54 nM | 68 nM
COc1cc(F)cc(-c2c[nH]c3ncnc(N(C)C)c23)c1 [Example 177, 5-(3-fluoro-5-methoxyphenyl)-N,N-dimethyl-7H-pyrrolo[2,3-d]pyrimidin-4-amine] | 41 nM | 49 nM

The next lines start with the values.

IC50 [1] | IC50 (mutant G2019S LRRK2) | Structure (SMILES)
19 nM | 47 nM | N#Cc1cccc(-c2c[nH]c3ncnc(N4CCOC(c5noc(C6CC6)n5)C4)c23)c1 (stereo not shown) [Example 135, 3-{4-[2-(5-cyclopropyl-1,2,4-oxadiazol-3-yl)morpholin-4-yl]-7H-pyrrolo[2,3-d]pyrimidin-5-yl}benzonitrile]
30 nM | 51 nM | N#Cc1cccc(OCC2CN(c3ncnc4[nH]cc(-c5cccc(C#N)c5)c34)CCO2)c1 (stereo not shown) [Example 137, 3-(4-{2-[(3-cyanophenoxy)methyl]morpholin-4-yl}-7H-pyrrolo[2,3-d]pyrimidin-5-yl)benzonitrile]
10 nM | 27 nM | N#Cc1cccc(-c2c[nH]c3ncnc(N4CCCC(O)C4)c23)c1 (stereo not shown) [Example 138, 3-[4-(3-hydroxypiperidin-1-yl)-7H-pyrrolo[2,3-d]pyrimidin-5-yl]benzonitrile]
30 nM | 84 nM | N#Cc1cccc(-c2c[nH]c3ncnc(N4CCOC(c5nc(C6CC6)no5)C4)c23)c1 (stereo not shown) [Example 142, 3-{4-[2-(3-cyclopropyl-1,2,4-oxadiazol-5-yl)morpholin-4-yl]-7H-pyrrolo[2,3-d]pyrimidin-5-yl}benzonitrile]
18 nM | 30 nM | Cc1cncc(-c2c[nH]c3ncnc(N4CCOCC4)c23)c1 [Example 149, 5-(5-methylpyridin-3-yl)-4-(morpholin-4-yl)-7H-pyrrolo[2,3-d]pyrimidine]
28 nM | 36 nM | Clc1cncc(-c2c[nH]c3ncnc(N4CCOCC4)c23)c1 [Example 150, 5-(5-chloropyridin-3-yl)-4-(morpholin-4-yl)-7H-pyrrolo[2,3-d]pyrimidine]
32 nM | 37 nM | COc1cncc(-c2c[nH]c3ncnc(N4CCOCC4)c23)n1 [Example 151, 5-(6-methoxypyrazin-2-yl)-4-(morpholin-4-yl)-7H-pyrrolo[2,3-d]pyrimidine]
30 nM | 365 nM | Cc1nc(N2CCOCC2)c2c(-c3cccc(C#N)c3F)c[nH]c2n1 [Example 154, 2-fluoro-3-[2-methyl-4-(morpholin-4-yl)-7H-pyrrolo[2,3-d]pyrimidin-5-yl]benzonitrile]
8 nM | 37 nM | N#Cc1cccc(-c2c[nH]c3ncnc(N4CCC[C@@H](O)C4)c23)c1 [Example 155, 3-{4-[(3R)-3-hydroxypiperidin-1-yl]-7H-pyrrolo[2,3-d]pyrimidin-5-yl}benzonitrile]
18 nM | 86 nM | N#Cc1cccc(-c2c[nH]c3ncnc(N4CCC(F)CC4)c23)c1F [Example 158, 2-fluoro-3-[4-(4-fluoropiperidin-1-yl)-7H-pyrrolo[2,3-d]pyrimidin-5-yl]benzonitrile]
36 nM | 67 nM | Cc1cncc(-c2c[nH]c3ncnc(N4CCCC(O)C4)c23)c1 (stereo not shown) [Example 162, 1-[5-(5-methylpyridin-3-yl)-7H-pyrrolo[2,3-d]pyrimidin-4-yl]piperidin-3-ol]
25 nM | 29 nM | COc1ccc(F)cc1-c1c[nH]c2ncnc(N3CCC(F)CC3)c12 [Example 163, 5-(5-fluoro-2-methoxyphenyl)-4-(4-fluoropiperidin-1-yl)-7H-pyrrolo[2,3-d]pyrimidine]
29 nM | 38 nM | COc1cc(F)cc(-c2c[nH]c3ncnc(N4CCCC(O)C4)c23)c1 (stereo not shown) [Example 164, 1-[5-(3-fluoro-5-methoxyphenyl)-7H-pyrrolo[2,3-d]pyrimidin-4-yl]piperidin-3-ol]
